PubChem BioAssay (NCI)
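Tested at 5 concentrations; 48 h exposure; 96-well plates; endpoints linearly interpolated, else capped at highest concentration. TGI marks complete inhibition of growth.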

Tests used:
Assay in all cases: NCI-60 cell line screen, 48 h
[1] = system: M14 melanoma
[2] = system: 786-0 renal
[3] = system: LXFL 529 NSCLC
[4] = system: CAKI-1 renal
[5] = system: MOLT-4 leukemia
[6] = system: TK-10 renal
[7] = system: M19-MEL melanoma
[8] = system: SNB-78 CNS
[9] = system: HT29 colon
[10] = system: SW-620 colon
[11] = system: COLO 205 colon
[12] = system: HCT-116 colon
[13] = system: SN12C renal
[14] = system: HCC-2998 colon
[15] = system: SNB-75 CNS
[16] = system: SK-MEL-28 melanoma
[17] = system: U251 CNS
[18] = system: SK-OV-3 ovarian
[19] = system: LOX IMVI melanoma
[20] = system: DLD-1 colon
[21] = system: HL-60(TB) leukemia
[22] = system: DMS 114 small cell lung
[23] = system: ACHN renal
[24] = system: HCT-15 colon
[25] = system: OVCAR-5 ovarian
[26] = system: IGROV1 ovarian
[27] = system: HOP-62 NSCLC
[28] = system: CCRF-CEM leukemia
[29] = system: UACC-257 melanoma
[30] = system: OVCAR-3 ovarian
[31] = system: UACC-62 melanoma
[32] = system: NCI-H23 lung
[33] = system: EKVX NSCLC
[34] = system: K-562 leukemia
[35] = system: SK-MEL-5 melanoma
[36] = system: MALME-3M melanoma
[37] = system: XF 498 CNS
[38] = system: SF-295 CNS
[39] = system: SNB-19 CNS
[40] = system: SK-MEL-2 melanoma
[41] = system: OVCAR-8 ovarian
[42] = system: SF-268 CNS
[43] = system: KM12 colon
[44] = system: NCI-H460 lung
[45] = system: RPMI-8226 leukemia
[46] = system: A498 renal
[47] = system: SR leukemia
[48] = system: KM20L2 colon
[49] = system: DMS 273 small cell lung
[50] = system: SF-539 CNS
[51] = system: A549 NSCLC
[52] = system: NCI-H226 lung
[53] = system: RXF 393 renal
[54] = system: RXF-631 renal
[55] = system: HOP-18 NSCLC
[56] = system: UO-31 renal
[57] = system: OVCAR-4 ovarian
[58] = system: HOP-92 NSCLC
[59] = system: NCI-H522 lung

`c1ccc2c(c1)CCc1c(-c3ccncc3)n[nH]c1-2` was tested, and the TGI [1] was 47.9 µM, the TGI [2] was > 100 µM and the TGI [3] was 66.2 µM. The TGI [4] was 73.4 µM, the TGI [5] was 85.4 µM and the TGI [6] was > 100 µM. For the same compound, the TGI [7] was 72.8 µM, the TGI [8] was > 100 µM and the TGI [9] was > 100 µM. For the same compound, the TGI [10] was > 100 µM, the TGI [11] was 63.3 µM and the TGI [12] was 46.2 µM. The TGI [13] was > 100 µM, the TGI [14] was 94.2 µM and the TGI [15] was 77.7 µM. It also gave a TGI [16] of 62.8 µM, a TGI [17] of 57.8 µM and a TGI [18] of 93.6 µM. The TGI [19] was 54.8 µM, the TGI [20] was > 100 µM and the TGI [21] was 88.8 µM. For the same compound, the TGI [22] was 51.7 µM, the TGI [23] was > 100 µM and the TGI [24] was 87.4 µM. The TGI [25] was > 100 µM, the TGI [26] was 89.2 µM and the TGI [27] was > 100 µM. The TGI [28] was 61.7 µM, the TGI [29] was 57.7 µM and the TGI [30] was 33.3 µM. It also gave a TGI [31] of 34.7 µM, a TGI [32] of 58.3 µM and a TGI [33] of 75.5 µM. The TGI [34] was > 100 µM, the TGI [35] was 32.1 µM and the TGI [36] was > 100 µM. The TGI [37] was 22.5 µM, the TGI [38] was > 100 µM and the TGI [39] was > 100 µM. The TGI [40] was 38.4 µM, the TGI [41] was 88.6 µM and the TGI [42] was > 100 µM. For the same compound, the TGI [43] was 55.7 µM, the TGI [44] was > 100 µM and the TGI [45] was 84.2 µM. The TGI [46] was 79.8 µM, the TGI [47] was 73.8 µM and the TGI [48] was 45.9 µM. For the same compound, the TGI [49] was 52.1 µM, the TGI [50] was > 100 µM and the TGI [51] was > 100 µM. It also gave a TGI [52] of 55.6 µM.

`O=C1c2cccc3cccc(c23)C(=O)N1CCN(CCO)CCO` was tested, and the TGI [1] was 46.8 µM, the TGI [2] was > 100 µM and the TGI [3] was > 100 µM. For the same compound, the TGI [5] was 80.8 µM, the TGI [6] was 62.3 µM and the TGI [7] was 43.8 µM. For the same compound, the TGI [53] was 92.2 µM, the TGI [8] was > 100 µM and the TGI [9] was 76.1 µM. The TGI [10] was 46 µM, the TGI [54] was > 100 µM and the TGI [11] was 30.2 µM. For the same compound, the TGI [12] was 46.6 µM, the TGI [13] was 74.3 µM and the TGI [14] was 84.9 µM. For the same compound, the TGI [15] was > 100 µM, the TGI [16] was > 100 µM and the TGI [55] was > 100 µM. The TGI [17] was > 100 µM, the TGI [18] was > 100 µM and the TGI [19] was 34.5 µM. For the same compound, the TGI [20] was > 100 µM, the TGI [21] was > 100 µM and the TGI [23] was 67.5 µM. The TGI [24] was 56.2 µM, the TGI [25] was 49.1 µM and the TGI [26] was > 100 µM. The TGI [27] was > 100 µM, the TGI [28] was > 100 µM and the TGI [56] was > 100 µM. The TGI [29] was 54 µM, the TGI [30] was > 100 µM and the TGI [57] was 66 µM. It also gave a TGI [31] of 37.5 µM, a TGI [32] of 74.8 µM and a TGI [33] of 90.9 µM. For the same compound, the TGI [34] was 90.6 µM, the TGI [35] was 33.6 µM and the TGI [36] was 46.3 µM. For the same compound, the TGI [37] was 66.5 µM, the TGI [38] was > 100 µM and the TGI [39] was > 100 µM. It also gave a TGI [58] of 83 µM, a TGI [40] of 30.2 µM and a TGI [41] of 35 µM. The TGI [42] was > 100 µM, the TGI [43] was > 100 µM and the TGI [44] was 69.9 µM. For the same compound, the TGI [45] was 56.4 µM, the TGI [46] was 41.3 µM and the TGI [47] was 44.9 µM. For the same compound, the TGI [48] was 56.6 µM, the TGI [49] was 66.3 µM and the TGI [50] was 86.5 µM. The TGI [51] was 70.7 µM and the TGI [52] was 40.1 µM.

`CCC(C)(C)n1c(C)nc2c1C(=O)c1ccccc1C2=O` was tested, and the TGI [1] was > 100 µM, the TGI [2] was > 100 µM and the TGI [3] was > 100 µM. The TGI [5] was > 100 µM, the TGI [6] was > 100 µM and the TGI [7] was 31.7 µM. For the same compound, the TGI [53] was 59.4 µM, the TGI [8] was > 100 µM and the TGI [9] was > 100 µM. For the same compound, the TGI [10] was > 100 µM, the TGI [11] was 46.2 µM and the TGI [12] was 35.8 µM. The TGI [13] was > 100 µM, the TGI [14] was > 100 µM and the TGI [15] was > 100 µM. The TGI [16] was > 100 µM, the TGI [17] was > 100 µM and the TGI [18] was > 100 µM. For the same compound, the TGI [19] was 47.3 µM, the TGI [20] was > 100 µM and the TGI [21] was 47.9 µM. The TGI [23] was > 100 µM, the TGI [24] was > 100 µM and the TGI [26] was > 100 µM. The TGI [27] was > 100 µM, the TGI [28] was > 100 µM and the TGI [56] was 90.7 µM. The TGI [29] was 84.4 µM, the TGI [30] was > 100 µM and the TGI [57] was > 100 µM. The TGI [31] was 36.1 µM, the TGI [32] was 60.4 µM and the TGI [33] was > 100 µM. For the same compound, the TGI [34] was > 100 µM, the TGI [35] was 33.7 µM and the TGI [36] was 86.7 µM. For the same compound, the TGI [37] was 46.7 µM, the TGI [38] was > 100 µM and the TGI [39] was > 100 µM. For the same compound, the TGI [59] was 87.5 µM, the TGI [40] was 42.3 µM and the TGI [41] was > 100 µM. For the same compound, the TGI [42] was > 100 µM, the TGI [43] was > 100 µM and the TGI [44] was 29 µM. For the same compound, the TGI [47] was 42.7 µM, the TGI [48] was > 100 µM and the TGI [49] was 44.6 µM. The TGI [50] was > 100 µM, the TGI [51] was > 100 µM and the TGI [52] was > 100 µM.
